In patent US10877036B2, “Biosensor based on Gβγ-interacting proteins to monitor G-protein activation” (priority 2014, dated 2020):
Changes are numbered by the printed parent chain. Starred links: 1 amine or outer side, 2 acyl side, 3 side chain; linkers in the order of their positions; H or OH if unused. Positions of bridges follow the written chain, without caps; N, C: chain ends. Non-standard residues stand in square brackets, D forms with d. Residues, ends and D or L forms follow the SMILES beside them. *: point of attachment. Leu(3R-OH,Nα-propionyl) = CCC(=O)N[C@H](C(=O)*)[C@H](O)C(C)C; X1 = CC(C)[C@@H](O[*:3])[C@H](N[*:1])C(=O)[*:2]; NMeT = CN[C@H](C(=O)O)[C@@H](C)O; dPhLac = O=C(O)[C@H](O)Cc1ccccc1; NMeA = CN[C@@H](C)C(=O)O; NMeDha = C=C(NC)C(=O)O

Columns and labels:
[1] = target: T1, Gα13 (Homo sapiens, UniProt Q14344); test: Ubo-Qic selectivity, TPαR-mediated G-protein activation (BRET biosensor); format: cell-based; settings: U-46619 100 nM, FIG. 5C
T1 construct: host or cells: HEK293
T1 sequence (Q14344 1-377): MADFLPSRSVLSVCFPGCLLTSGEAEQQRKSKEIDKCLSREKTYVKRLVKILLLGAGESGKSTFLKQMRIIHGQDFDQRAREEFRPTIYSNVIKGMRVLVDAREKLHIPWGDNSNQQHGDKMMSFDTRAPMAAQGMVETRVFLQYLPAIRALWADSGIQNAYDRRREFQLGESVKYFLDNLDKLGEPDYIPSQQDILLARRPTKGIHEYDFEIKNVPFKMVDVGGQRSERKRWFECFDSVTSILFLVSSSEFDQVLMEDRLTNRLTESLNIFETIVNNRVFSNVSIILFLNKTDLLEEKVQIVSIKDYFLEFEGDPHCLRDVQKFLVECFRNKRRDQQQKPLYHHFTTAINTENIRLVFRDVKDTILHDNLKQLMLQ
Description: (§1) BRET assays in living cells. Cells seeded in 96-well plates were washed twice with Phosphate Buffered Saline (PBS), followed by Tyrode buffer addition (composition: 137 mM NaCl, 0.9 mM KCl, 1 mM MgCl2, 11.9 mM NaHCO3, 3.6 mM NaH2PO4, 25 mM HEPES, 5.5 mM Glucose and 1 mM CaCl2, pH 7.4). The cells were then treated with the different ligands or vehicle for the indicated times. The Rluc substrate, coelenterazine 400a, was added at a final concentration of 2.5 μM and cells were further incubated for an additional 5 minutes. BRET values were then collected using a Mithras™ LB940 Multimode Microplate Reader or a TRISTAR® LB942 Multimode Microplate Reader, equipped with the following filters: 400 nm±70 nm (energy donor) and 515 nm±20 nm (energy acceptor). BRET values were determined by calculating the ratio of the light emitted by GFP (515 nm) over the light emitted by the Rluc (400 nm). To determine the % of activation (Stim as % of basal), BRET values obtained for the agonist treated cells where expressed as a percentage of the BRET values obtained with the corresponding cells treated with vehicle.
(§2) G-protein inhibitors. BRET assays were performed as described previously, except that cells were pre-treated overnight at 37° C. with 100 ng/ml of pertussis toxin, or, for 20 minutes at 37° C. with 100 nM of Ubo-Qic.

[2] = target: T2, Gα15/16 (Homo sapiens, UniProt P30679); test: as above; format: cell-based; settings: U-46619 100 nM, FIG. 5C
T2 construct: host or cells: HEK293
T2 sequence (P30679 1-374): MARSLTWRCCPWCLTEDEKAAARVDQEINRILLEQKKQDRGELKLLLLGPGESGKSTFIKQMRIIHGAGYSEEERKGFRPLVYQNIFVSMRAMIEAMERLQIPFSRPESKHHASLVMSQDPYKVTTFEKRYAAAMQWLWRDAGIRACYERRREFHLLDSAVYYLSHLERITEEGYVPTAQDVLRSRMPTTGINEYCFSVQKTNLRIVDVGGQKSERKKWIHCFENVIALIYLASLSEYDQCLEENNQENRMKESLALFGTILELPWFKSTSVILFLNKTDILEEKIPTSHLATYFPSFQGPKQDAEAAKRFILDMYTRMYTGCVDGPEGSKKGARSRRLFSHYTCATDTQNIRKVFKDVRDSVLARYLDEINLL
Description: as §1, §2

[3] = target: T3, Gα12 (Homo sapiens, UniProt Q03113); test: as above; format: cell-based; settings: U-46619 100 nM, FIG. 5C
T3 construct: host or cells: HEK293
T3 sequence (Q03113 1-381): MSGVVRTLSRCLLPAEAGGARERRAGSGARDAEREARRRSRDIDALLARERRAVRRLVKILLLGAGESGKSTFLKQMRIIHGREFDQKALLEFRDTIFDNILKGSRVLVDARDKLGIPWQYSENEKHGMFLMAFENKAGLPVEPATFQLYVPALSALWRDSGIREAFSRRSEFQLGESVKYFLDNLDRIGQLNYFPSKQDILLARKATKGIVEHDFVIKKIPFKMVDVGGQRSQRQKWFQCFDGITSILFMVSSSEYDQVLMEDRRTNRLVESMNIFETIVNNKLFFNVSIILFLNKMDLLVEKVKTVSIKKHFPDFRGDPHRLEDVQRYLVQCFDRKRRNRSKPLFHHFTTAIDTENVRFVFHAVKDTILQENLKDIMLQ
Description: as §1, §2

[4] = target: T4, Gαq (Homo sapiens, UniProt P50148); test: G-protein inhibitor pre-treatment, TPαR/Gαq BRET biosensor response; format: cell-based; settings: agonist U-46619, 100 nM Ubo-Qic for 20 minutes or 100 ng/ml pertussis toxin overnight, FIG. 5A
T4 construct: host or cells: HEK293
T4 sequence (P50148 1-359): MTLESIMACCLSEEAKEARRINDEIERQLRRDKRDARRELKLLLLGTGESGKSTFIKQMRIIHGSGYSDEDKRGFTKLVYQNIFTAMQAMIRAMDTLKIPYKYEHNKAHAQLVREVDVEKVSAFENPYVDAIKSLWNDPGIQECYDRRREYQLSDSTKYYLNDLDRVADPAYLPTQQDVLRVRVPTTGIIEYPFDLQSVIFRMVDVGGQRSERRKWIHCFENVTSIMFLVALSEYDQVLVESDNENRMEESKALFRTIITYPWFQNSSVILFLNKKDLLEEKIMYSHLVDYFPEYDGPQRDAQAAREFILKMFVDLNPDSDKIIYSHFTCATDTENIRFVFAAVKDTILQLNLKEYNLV
Description: as §1, §2

[5] = test system: Gαq substituted at position 67 (Y67C, Y67G, Y67S & Y67L); test: Ubo-Qic sensitivity of the activation of mutant Gαq (BRET biosensor); format: cell-based, human; settings: FIG. 5D
Source text: (§3) Expression vectors: Receptors and G-proteins. The plasmid encoding AT1 R was a generous gift from Stéphane Laporte (McGill University, Montréal, Canada). Gαq, Gα11, Gα12, Gα13, Gα14, Gα15/16, GαoA, GαoB, Gαz, Gαs, Gαi1, Gαi2, Gαi3, Gβ1, TPαR, D2R and α1BAR were obtained from the cDNA Resource Center (cDNA.org). Plasmids encoding mutant Gα proteins including GαqG66K, GαqY67C and GαqF75G, were obtained by site-directed mutagenesis (PCR overlap) of the Gαq wild-type protein coding sequence using the primers depicted in Table I. The PCR fragments were digested with Acc65I+XhoI restriction enzymes and cloned in pCDNA3.1 Zeo(+) (from Invitrogen®, Carlsbad, Calif.) digested Acc65I+XhoI. […]
(§4) BRET assays in living cells. […] BRET values were then collected using a Mithras™ LB940 Multimode Microplate Reader or a TRISTAR® LB942 Multimode Microplate Reader, equipped with the following filters: 400 nm±70 nm (energy donor) and 515 nm±20 nm (energy acceptor). BRET values were determined by calculating the ratio of the light emitted by GFP (515 nm) over the light emitted by the Rluc (400 nm). To determine the % of activation (Stim as % of basal), BRET values obtained for the agonist treated cells where expressed as a percentage of the BRET values obtained with the corresponding cells treated with vehicle. […]

[6] = target: T5, GαqF75G (Homo sapiens, UniProt P50148, F75G); test: as above; format: cell-based; settings: Gαq Phe75 to glycine; FIG. 5D
T5 construct: expressed in transfected cells; host or cells: HEK293
T5 sequence (P50148 1-359 F75G): T4 sequence (P50148 1-359) with F75G
Source text: as §3, §4

[7] = target: T6, Gαi1 (Homo sapiens, UniProt P63096); test: G-protein inhibitor pre-treatment, D2R/Gαi1 BRET biosensor response; format: cell-based; settings: D2R/Gαi1, agonist rotigotine; 100 nM Ubo-Qic for 20 minutes or 100 ng/ml pertussis toxin overnight; FIG. 5B
T6 construct: host or cells: HEK293
T6 sequence (P63096 whole entry): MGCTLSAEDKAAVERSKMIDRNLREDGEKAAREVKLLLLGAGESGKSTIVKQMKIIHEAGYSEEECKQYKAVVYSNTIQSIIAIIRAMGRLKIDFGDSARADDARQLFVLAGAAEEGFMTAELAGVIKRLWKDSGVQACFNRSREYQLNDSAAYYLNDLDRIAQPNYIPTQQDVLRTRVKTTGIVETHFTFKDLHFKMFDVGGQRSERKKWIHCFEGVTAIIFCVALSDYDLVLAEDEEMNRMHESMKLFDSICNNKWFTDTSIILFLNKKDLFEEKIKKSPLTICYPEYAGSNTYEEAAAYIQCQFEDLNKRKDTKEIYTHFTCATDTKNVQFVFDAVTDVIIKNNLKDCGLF
Description: as §1, §2

[8] = target: T7, angiotensin II type 1 receptor (AT1R) (Homo sapiens, UniProt P30556); test: Ligand profiling with the βγIP-based BRET biosensor, AT1R with Gαq or Gα12; format: cell-based; settings: Gα12 versus Gαq, FIG. 8C
T7 construct: host or cells: HEK293
T7 sequence (P30556 1-359): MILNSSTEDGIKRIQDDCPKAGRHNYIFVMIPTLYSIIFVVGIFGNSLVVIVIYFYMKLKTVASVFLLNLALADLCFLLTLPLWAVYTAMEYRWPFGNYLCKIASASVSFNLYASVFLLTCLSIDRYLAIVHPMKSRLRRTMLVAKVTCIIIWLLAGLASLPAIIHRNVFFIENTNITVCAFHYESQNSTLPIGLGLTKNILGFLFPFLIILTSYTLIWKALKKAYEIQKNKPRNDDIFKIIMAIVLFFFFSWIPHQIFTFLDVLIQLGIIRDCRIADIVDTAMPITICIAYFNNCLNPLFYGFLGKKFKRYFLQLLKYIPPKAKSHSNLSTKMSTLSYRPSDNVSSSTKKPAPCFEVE
Description: Cell culture and transfections. Human embryonic kidney 293 (HEK293) cells were maintained in Dulbecco's Modified Eagle's Medium (DMEM) supplemented with 10% fetal bovine serum, 100 unit/ml penicillin/streptomycin at 37° C. in a humidified atmosphere with 5% CO2. Two days before the experiments, HEK293 cells were transfected with the indicated plasmids using poly-ethylenimine 25-kDa linear (PEI) as a transfecting agent (at a ratio of 3 to 1, PEI/DNA) (Hamdan, Rochdi et al. 2007), and then directly seeded in 96-well plates pre-treated with poly-L-ornithine hydrobromide or Poly-D-Lysine, at a density of 35,000 cells per well (for BRET and PCA assays in living cells), or 6-well plates at a density of 1,000,000 cells per well (for BRET assays on membrane preparations).
BRET assays in living cells. […] BRET values were then collected using a Mithras™ LB940 Multimode Microplate Reader or a TRISTAR® LB942 Multimode Microplate Reader, equipped with the following filters: 400 nm±70 nm (energy donor) and 515 nm±20 nm (energy acceptor). BRET values were determined by calculating the ratio of the light emitted by GFP (515 nm) over the light emitted by the Rluc (400 nm). To determine the % of activation (Stim as % of basal), BRET values obtained for the agonist treated cells where expressed as a percentage of the BRET values obtained with the corresponding cells treated with vehicle.

Molecule | sensitivity of G-protein activation to the inhibitor [1] | sensitivity of G-protein activation to the inhibitor [2] | sensitivity of G-protein activation to the inhibitor [3] | effect of pre-treatment on the BRET response following agonist stimulation [4] | sensitivity of mutant Gαq activation to the inhibitor [5] | inhibition of mutant Gαq activation [6] | effect of pre-treatment on the biosensor BRET response after agonist incubation [7] | efficacy of G-protein activation relative to angiotensin II response [8]
C=C1C(=O)N[C@@H](C)C(=O)N(C)[C@@H](C)C(=O)N[C@@H]([C@H](OC(=O)[C@@H](NC(=O)CC)[C@H](O)C(C)C)C(C)C)C(=O)N(C)[C@@H]([C@@H](C)OC)C(=O)O[C@H](C(C)C)[C@H](NC(C)=O)C(=O)O[C@H](Cc2ccccc2)C(=O)N1C [Ubo-Qic, L-threonine,(3R)-N-acetyl-3-hydroxy-L-leucyl-(aR)-a-hydroxybenzenepropanoyl-2,3-idehydro-N-methylalanyl-L-alanyl-N-methyl-L-alanyl-(3R)-3-[[(2S,3R)-3-hydroxy-4-methyl-1-oxo-2-[(1-oxopropyl)amino]pentyl]oxy]-L-leucyl-N,O-dimethyl-,(7→1)-lactone (9CI)] (Ac-[X1][dPhLac][NMeDha]A[NMeA][X1](Leu(3R-OH,Nα-propionyl))[NMeT](Me); ester 1-C) | insensitive | insensitive | insensitive | completely abolished | resistance | partial | no detectable effect | 
[Asp^1, Val^5, Gly^8]-AngII [DVG] |  |  |  |  |  |  |  | better efficacy for Gα12 activation than Gαq
